“And” between values parts separate entries of the source, which are not always exact repeats. Equal values may be shown once. Read-outs that look alike come from different tables or passages of the source.
Experiments:
A/H3N2 (A/HK/7/87) = experiment: microbe, parasite or virus in culture; assay type: cell-based
A/FM/1/47 (A/H1N1) = experiment: microbe, parasite or virus in culture; assay type: cell-based; conditions: Influenza A virus, H1N1, MDCK, read-out: Antiviral activity (EC50) A/FM/1/47
endosomal pH = assay type: cell-based
A/H1N1 (A/PR/8/34) = experiment: microbe, parasite or virus in culture; assay type: cell-based, influenza A virus; conditions: read-out: Antiviral EC50 A/H1N1 (A/PR/8/34)
[1] = test system: influenza virus A/PR/8/34; assay type: cell-based
MDCK cells = conditions: dog
A/Ishikawa/7/82 (A/H3N2) = experiment: microbe, parasite or virus in culture; assay type: cell-based; conditions: Influenza A virus, read-out: Antiviral activity (EC50) A/Ishikawa/7/82
A/Ned/378/05 (A/H1N1) = experiment: microbe, parasite or virus in culture; assay type: cell-based; conditions: Influenza A virus, H1N1, MDCK, read-out: Antiviral activity (EC50) A/Ned/378/05
A/Victoria/3/75 (A/H3N2) = experiment: microbe, parasite or virus in culture; assay type: cell-based; conditions: Influenza A virus, H3N2, read-out: EC50 A/Victoria/3/75
in vitro = conditions: dog, Cytotoxicity CC50
A/M2 wt channel = A/M2 wt channel (Influenza A virus, UniProt P0DOF5); experiment: biochemical; conditions: pH 5.5, read-out: Activity against A/M2 wt channel, Inhibition at 100 μM (%)
[2] = Influenza A virus, H3N2, MDCK, read-out: Antiviral EC50 A/H3N2 (A/HK/7/87)
[3] = Influenza A virus, H3N2, MDCK, read-out: Antiviral activity (EC50) A/HK/7/87
[4] = Influenza A virus, H1N1|PR/8, MDCK

Chain of A/M2 wt channel (P0DOF5 whole entry, looked up): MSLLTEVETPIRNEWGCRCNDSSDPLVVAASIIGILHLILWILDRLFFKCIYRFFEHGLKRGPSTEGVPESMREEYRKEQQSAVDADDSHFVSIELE

In the case of `NC12CC3CC(CC(C3)C1)C2` [Amantadine, amantadine], the EC50 (A/H3N2 (A/HK/7/87); [2]) is reported as 3.4 µM, the EC50 (A/H3N2 (A/HK/7/87); [3]) is reported as 3.4 ± 1.7 µM and the EC50 (A/FM/1/47 (A/H1N1)) is reported as 5.1 ± 2.4 µM. For the same compound, the “Effect on acridine orange staining pattern” value (endosomal pH; 500 μM) was “neither of the polycyclic amines tested”, the EC50 (A/H1N1 (A/PR/8/34); [4]) was 53 µM and the “EC99 (2-log10 reduction in virus yield)” value [1] was 179 μM and 179 ± 53 μM. The “Cytotoxicity (MCC)” value (MDCK cells) was 500 µM, the EC50 (A/Ishikawa/7/82 (A/H3N2)) was 11 ± 8 µM and the EC50 (A/Ned/378/05 (A/H1N1)) was 2 µM.

Compound `C1=CC2C3C4C5C=CC4C24CNCC54C13` [Compound 3, 3-azahexacyclo[7.6.0.0^1,5.0^5,12.0^6,10.0^11,15]pentadeca-7,13-diene] has an EC50 (A/H3N2 (A/HK/7/87); [2]) of 16 µM, an EC50 (A/H3N2 (A/HK/7/87); read-out: Antiviral EC50 A/H3N2 (A/HK/7/87)) of 14 µM and an EC50 (A/H1N1 (A/PR/8/34); [4]) of 14 µM. The EC50 (A/H1N1 (A/PR/8/34)) was 16 µM, the EC50 (A/Victoria/3/75 (A/H3N2)) was > 100 µM and the CC50 (in vitro) was > 100 µM.

For `CCC(CC)O[C@@H]1C=C(C(=O)O)C[C@H](N)[C@H]1NC(C)=O` [Oseltamivir carboxylate], the EC50 (A/H3N2 (A/HK/7/87); [3]) was 29 ± 5 µM, the EC50 (A/FM/1/47 (A/H1N1)) was 16 ± 2 µM and the “Cytotoxicity (MCC)” value (MDCK cells) was >100 µM. For the same compound, the EC50 (A/Ishikawa/7/82 (A/H3N2)) was 3 ± 1 µM and the EC50 (A/Ned/378/05 (A/H1N1)) was 1.5 ± 0.8 µM.

In the case of `NC(=O)c1ncn([C@@H]2O[C@H](CO)[C@@H](O)[C@H]2O)n1` [Ribavirin], the EC50 (A/H3N2 (A/HK/7/87); [3]) is reported as 8.6 ± 0.4 µM, the EC50 (A/FM/1/47 (A/H1N1)) is reported as 10 ± 1 µM and the “EC99 (2-log10 reduction in virus yield)” value [1] is reported as 11 ± 1 μM. For the same compound, the “Cytotoxicity (MCC)” value (MDCK cells) was >100 µM, the EC50 (A/Ishikawa/7/82 (A/H3N2)) was 8.8 ± 0.3 µM and the EC50 (A/Ned/378/05 (A/H1N1)) was 7.6 ± 1 µM.

`CC(N)C12CC3CC(CC(C3)C1)C2` (centres unmarked) [Rimantadine, rimantadine] showed an EC50 (A/H3N2 (A/HK/7/87); [2]) of 0.17 µM, an EC50 (A/H3N2 (A/HK/7/87); [3]) of 0.17 ± 0.08 µM and an EC50 (A/FM/1/47 (A/H1N1)) of 1.9 ± 1.1 µM. For the same compound, the EC50 (A/H1N1 (A/PR/8/34); [4]) was 4.6 µM, the inhibition at 100 µM (A/M2 wt channel) was 91.4 ± 0.8% and the “EC99 (2-log10 reduction in virus yield)” value [1] was 48 μM and 48 ± 5 μM. For the same compound, the “Cytotoxicity (MCC)” value (MDCK cells) was >100 µM, the “Cytotoxicity MCC (minimum cytotoxic concentration)” value (MDCK cells) was 500 µM and the EC50 (A/Ishikawa/7/82 (A/H3N2)) was 0.45 ± 0.15 µM. The CC50 (in vitro) was 230 µM and the EC50 (A/Ned/378/05 (A/H1N1)) was 0.5 ± 0.22 µM.

For `CC(=O)N[C@H]1[C@H]([C@H](O)[C@H](O)CO)OC(C(=O)O)=C[C@@H]1N=C(N)N` [Zanamivir], the EC50 (A/H3N2 (A/HK/7/87); [3]) was 1.2 ± 0.9 µM, the EC50 (A/FM/1/47 (A/H1N1)) was 5 ± 1.6 µM and the “Cytotoxicity (MCC)” value (MDCK cells) was >100 µM. It also gave an EC50 (A/Ishikawa/7/82 (A/H3N2)) of 8.7 ± 3.8 µM and an EC50 (A/Ned/378/05 (A/H1N1)) of 1.7 ± 0.5 µM.

With `CO/C1=C\C(C)=C\[C@@H](C)[C@@H](O)[C@@H](C)C/C(C)=C/C=C/[C@H](OC)[C@@H]([C@@H](C)[C@@H](O)[C@H](C)[C@@]2(O)C[C@@H](O)[C@H](C)[C@@H](C(C)C)O2)OC1=O` [bafilomycin A1] the “Effect on acridine orange lysosomal red fluorescence” value (endosomal pH) was “completely inhibited”.

For `CCN(CC)CCCC(C)Nc1ccnc2cc(Cl)ccc12` (centres unmarked) [chloroquine], the “Effect on acridine orange lysosomal red fluorescence” value (endosomal pH) was “a decrease in lysosomal pH and a shift to yellow fluorescence”.

Source: article PMC7114147 (Antiviral Research, 2013)
